Assay results as given in PubChem BioAssay (NCI).
Where “and” joins values, the source holds several entries; their conditions need not be identical. Equal entries are not always repeated.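 The compound was tested at five concentrations on cells cultured in 96-well plates, with a 48-hour exposure period. GI50: concentration for 50% inhibition of growth. TGI: total growth inhibition.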

What was measured:
Assay in all cases: NCI anticancer screen, dose series, 48 h
K-562 leukemia = system: K-562 leukemia
IGROV1 ovarian = system: IGROV1 ovarian
UACC-257 melanoma = system: UACC-257 melanoma
SF-539 CNS = system: SF-539 CNS
NCI-H522 lung = system: NCI-H522 lung
HL-60(TB) leukemia = system: HL-60(TB) leukemia
OVCAR-4 ovarian = system: OVCAR-4 ovarian
NCI-H226 lung = system: NCI-H226 lung
HS 578T breast = system: HS 578T breast
BT-549 breast = system: BT-549 breast

Compound | TGI (K-562 leukemia) [µM] | TGI (IGROV1 ovarian) | TGI (UACC-257 melanoma) | TGI (SF-539 CNS) [µM] | TGI (NCI-H522 lung) [µM] | TGI (HL-60(TB) leukemia) [µM] | TGI (OVCAR-4 ovarian) [µM] | GI50 (K-562 leukemia) | GI50 (IGROV1 ovarian) | TGI (NCI-H226 lung) [µM] | TGI (HS 578T breast) [µM] | GI50 (UACC-257 melanoma) | GI50 (SF-539 CNS) [µM] | GI50 (OVCAR-4 ovarian) | TGI (BT-549 breast) [µM] | GI50 (NCI-H226 lung) [µM] | GI50 (HS 578T breast) | GI50 (NCI-H522 lung) [µM] | GI50 (HL-60(TB) leukemia) | GI50 (BT-549 breast) [µM]
O=C1NC2(CCCC2)C2CCCCC12O (centres undefined) | > 100 | > 100 µM | > 100 µM | > 100 | > 100 | > 100 | > 100 |  |  |  |  |  |  |  |  |  |  |  |  | 
CN[C@@H](Cc1cccc2ccccc12)C(=O)N[C@@H](CC(C)C)B(O)O | 0.0952 | 0.0554 µM and 0.0681 µM | 0.0337 µM and 0.04 µM | 0.0167 | < 0.0103 |  |  | 0.0228 µM | 0.0187 µM | 0.00722 | 0.0577 | 0.0169 µM and 0.0131 µM | 0.00473 | 0.0239 µM | 0.0243 |  |  |  |  | 
COc1ccc2c(c1)C(=O)c1c-2c(N2CCN(C(=O)CCNCCNCCN)CC2)nc2ccccc12 | 9.63 | 32.7 µM | 9.33 µM |  | 41.1 | 6.83 | 38.3 | 3.33 µM | 5.89 µM | 78.4 | 46.5 | 3.24 µM |  | 20.4 µM |  | 22.6 | 14.2 µM | 11.2 | 3.03 µM | 
CC[C@]12C=CCN3CC[C@@]4(c5ccc(OC)cc5N(C)[C@H]4[C@@](O)(C(=O)OC)[C@@H]1OC(=O)CCC(=O)O[C@H]1CC[C@H]4[C@@H]5CC[C@H]6CC(=O)CC[C@]6(C)[C@H]5CC[C@]14C)[C@@H]32 |  | > 100 µM | 16.6 µM | > 100 | 27 | 5.36 | > 100 |  | 3.17 µM | > 100 | > 100 | 3.91 µM | 3.89 | 2.58 µM | > 100 | 3.84 | 3.65 µM | 2.85 | 2.12 µM | 2.21
C[C@]12CCc3nonc3C1CC[C@@H]1C2CC[C@@]2(C)C1CC[C@@H]2O (some centres undefined) | > 100 | > 100 µM | > 100 µM | > 100 | > 100 | > 100 | > 100 |  |  | > 100 |  |  |  |  |  |  |  |  |  | 
CCOC(=O)c1c(-c2ccc(OC)c(O)c2)c(C#N)c(=S)n(C2OC(COC(C)=O)C(OC(C)=O)C(OC(C)=O)C2OC(C)=O)c1-c1ccccc1 (centres undefined) | > 100 | 47.7 µM and > 100 µM | 60.8 µM and > 100 µM |  | 45.7 | > 100 | > 100 | 43.1 µM and > 100 µM | 23.6 µM and > 100 µM | > 100 | > 100 | 23.4 µM and > 100 µM |  | 47.2 µM and > 100 µM | 64 |  | 38.8 µM and > 100 µM |  | 43.5 µM and > 100 µM | 
COc1ccc(-c2cc(=O)c3cc(C)c(C)c(C(=O)O)c3o2)cc1 | > 100 | > 100 µM | > 100 µM | > 100 |  | > 100 | > 100 |  |  |  |  |  |  |  |  |  |  |  |  | 
CN(C)CCN(C)C(=O)c1cccc2cccc(C(=O)O)c12 | > 100 | > 100 µM | > 100 µM | > 100 |  | > 100 | > 100 |  |  | > 100 |  |  |  |  |  |  |  |  |  | 
COc1ccc([Se][Se]c2ccc(OC)cc2OC)c(OC)c1 | 7.94 | 15.3 µM | 5.85 µM | 3.16 | 4 | 5.89 | 4.6 |  |  | 7.71 |  |  |  |  |  |  |  |  |  | 
N#CC(C(=O)CCC(=O)Nc1cccc(C(F)(F)F)c1)c1ccccc1 (centres undefined) | > 100 | > 100 µM | > 100 µM | > 100 | > 100 | > 100 | > 100 |  |  | > 100 |  |  |  |  |  |  |  |  |  | 
COc1cc2c(c(OC)c1OC)-c1c(c3ccc([N+](=O)[O-])cc3c(=O)n1CCCBr)C2=O | > 100 |  | > 100 µM | 17.9 | > 100 |  |  | 38.8 µM |  | 68.5 | > 100 | > 100 µM | 4.5 |  | 97.5 | 13.5 | 67.9 µM | 17 |  | 35.8
COc1cc(/C=C2\NC(=O)C3Cc4c(OC)c(C)c(OC)c(OC)c4C2N3C)c(OC)c(C)c1OC (centres undefined) | > 100 | > 100 µM | > 100 µM | > 100 | > 100 | > 100 | > 100 |  |  | > 100 |  |  |  |  |  |  |  |  |  | 
Cc1[nH]c2ccccc2c1C1=NO/C(=N\O)C(c2c(C)[nH]c3ccccc23)C1 (centres undefined) | > 100 | > 100 µM | > 100 µM | > 80.3 |  | 54 | > 100 |  |  | > 100 |  |  |  |  |  |  |  |  |  | 
O=S1(=O)c2cc(S(=O)(=O)n3ccnc3)ccc2NC2=NCCCN21 | > 100 | > 100 µM | > 100 µM | 40.1 | 30.9 | 36.4 | > 100 |  |  | 46.7 |  |  |  |  |  |  |  |  |  | 
COc1ccc(C2=NN(C(C)=O)C(c3ccc(Oc4ccnc5cc(Cl)ccc45)c(OC)c3)C2)cc1 (centres undefined) |  | > 100 µM |  |  | > 100 | > 100 |  |  | 6.29 µM |  | > 100 |  |  |  | > 100 |  | 5.15 µM | 7.57 | > 100 µM | 4
CC(=O)NCc1c(C(N)=O)ncn1Cc1ccccc1 | > 100 | > 100 µM | > 100 µM | > 100 |  | > 100 | > 100 |  |  |  |  |  |  |  |  |  |  |  |  | 
COc1ccc(-c2oc3c(OC)c(OC)c(OC)c(O)c3c(=O)c2OC)cc1O | 13.5 | 52.1 µM | > 100 µM | 0.101 | < 0.01 | < 0.01 | > 100 |  | 0.0358 µM |  |  | < 0.01 µM |  |  |  |  |  |  |  | 
C/C(CC(C)(C)N1CC1)=N\NC(=O)Nc1cccc2ccccc12 | 24.5 | 36.9 µM | 16.2 µM | 15.7 | 5.36 | 5 | 15.9 | 3.56 µM | 4.19 µM | 14.9 | 24.7 | 4.09 µM | 3.35 | 4.23 µM |  | 3.51 | 2.45 µM | 2.04 | 2.04 µM | 
N#CC1(N2CCCC2)CCC2(CC1)OCCO2 | > 100 | > 100 µM | > 100 µM | > 100 | > 100 | > 100 | > 100 |  |  | > 100 |  |  |  |  |  |  |  |  |  | 
CO/C=C(\Br)c1ccc2c(c1)OCO2 | > 100 | > 100 µM | > 100 µM | > 100 | > 100 | > 100 | > 100 |  |  | > 100 |  |  |  |  |  |  |  |  |  | 
COc1ccccc1NC(=O)C1=C(C)NC(C)=C(C(=O)Nc2ccccc2OC)C1c1ccccc1Cl | > 100 | > 100 µM | > 100 µM | > 100 |  | > 100 | > 100 |  |  | > 100 |  |  |  |  |  |  |  |  |  | 
